Patent US11590129B2, “Combination therapy with an antitumor alkaloid” (PHARMA MAR, S.A., priority 2010, dated 2023)
Where two headings read alike, the source gives them in different places. Starred links: 1 amine or outer side, 2 acyl side, 3 side chain; linkers in the order of their positions; H or OH if unused. Positions of bridges follow the written chain, without caps; N, C: chain ends. Non-standard residues stand in square brackets, D forms with d. Residues, ends and D or L forms follow the SMILES beside them. Chains are numbered I, II in the order given. Actinocin(9to1) = Cc1c2oc3c(C)ccc(C(=O)[*:1])c3nc-2c(C(=O)[*:2])c(N)c1=O; NMeV = CN[C@H](C(=O)O)C(C)C; Sar = CNCC(=O)O

Columns and labels:
[1] = system: A549 human lung carcinoma cell line; assay: MTT cytotoxicity assay in A549 cells: IC50 of single agents and combinations with PM01183; format: cell-based
Experimental: (§1) Additional serial dilutions were prepared in serum-free culture medium to achieve a final 4× concentration. Aliquots of 50 μL of each diluted compound were added per well.
A549 was the human lung carcinoma cell line selected for this assay.
(§2) a. […] Briefly, cells were harvested and seeded in 96 well microtiter plates at a density of 5,000 cells in 150 μL of culture medium and incubated for 24 hours in drug-free medium before treatment with vehicle alone or test compounds for 72 h.
(§3) The cytotoxic effect was measured by the MTT reduction assay, in which 3-(4,5-Dimethylthiazol-2-yl)-2,5-diphenyltetrazolium bromide, a tetrazole, which is reduced to purple formazan in the mitochondria of living cells, was used. MTT (50 μL of 1 mg/mL stock solution) was added to the wells and incubated for 8 hours at 37° C. until formazan crystals were formed. After gently removing the culture medium, DMSO was added to dissolve the insoluble purple formazan product into a colored solution. […] Results were expressed as percentage of control cell growth.
(§4) b. In a second set of assays, A549 human tumor cells were incubated with PM01183 in combination with each of the agents mentioned above.
(§5) As a visual aid, response values were plotted on a scatter plot with dose ratios given on the x-axis and % response values on the y-axis. […] In cases where response values at the two endpoints were approximately equivalent, points lying above or below this predicted line of additivity could be interpreted as representing antagonistic or synergistic drug interaction, respectively.

[2] = system: PC-3 human prostate cancer cell line; assay: cells
Experimental: as §2, §3, §4, §5, §1
PC-3 was the human prostate adenocarcinome cell line selected for this assay.

[3] = system: PANC-1 human pancreatic carcinoma cell line; assay: cells
Experimental: as §2, §3, §4, §5, §1
PANC-1 was the human pancreatic carcinoma cell line selected for this assay.

[4] = system: HGC-27 human gastric carcinoma cell line; assay: cells
Experimental: as §2, §3, §4, §5, §1
HGC-27 was the human gastric carcinoma cell line selected for this assay.

[5] = system: HepG2 human hepatocellular liver carcinoma cell line; assay: MTT cytotoxicity assay in HepG2 cells: IC50 of single agents and combinations with PM01183; format: cell-based; details: Homo sapiens
Experimental: as §2, §3, §4, §5, §1
HepG2 was the human hepatocellular liver carcinoma cell line selected for this assay.

[6] = system: HT-29 human colon adenocarcinoma cell line; assay: cells
Experimental: as §2, §3, §4, §5, §1
HT-29 was the human colon adenocarcinoma cell line selected for this assay.

[7] = system: U87-MG human glioblastoma cell line; assay: cells; details: Homo sapiens, U-87 MG, 72 h
Experimental: as §2, §3, §4, §5, §1
U87-MG was the human glioblastoma cell line selected for this assay.

[8] = system: A673 human rhabdomyosarcoma cell line; assay: cells
Experimental: as §2, §3, §4, §5, §1
A673 was the human rhabdomyosarcoma cell line selected for this assay.

[9] = system: IGROV-1 human ovarian adenocarcinoma cell line; assay: cells
Experimental: as §2, §3, §4, §5, §1
IGROV-1 was the human ovarian adenocarcinoma cell line selected for this assay.

[10] = system: MDA-MB-231 human breast adenocarcinoma cell line; assay: cells
Experimental: as §2, §3, §4, §5, §1

[11] = system: RXF-393 human kidney carcinoma cell line; assay: cells
Experimental: as §2, §3, §4, §5, §1

[12] = system: SK-MEL-2 human melanoma cell line; assay: cells; details: Homo sapiens, SK-MEL-2, 72 h
Experimental: as §2, §3, §4, §5, §1
SK-MEL-2 was the human melanoma cell line selected for this assay.

[13] = system: HGC-27 tumors; assay: Human gastric tumor xenografts (HGC-27) in athymic nude mice, tumor volume % T/C; format: in vivo
Experimental: Female athymic nude mice (Harlan Laboratories Models, S.L. (Barcelona, Spain) were utilized for all experiments. Animals were housed in individually ventilated cages, up to ten per cage in a 12-hour light-dark cycle at 21-23° C. and 40-60% humidity. The mice were allowed free access to irradiated standard rodent diet and sterilized water. Animals were acclimated for at least 5 days prior to tumor implantation with a tumor cell suspension.
HGC-27 cells were grown at 37° C. with 5% CO2 in Iscove's modified Dulbeco's medium (IDMD).
PM01183 was provided in the form of vials of lyophilized PM01183 cake which was reconstituted with water for infusion to a concentration of 0.2 mg/mL. The PM01183 stock solution was further diluted in 5% glucose solution for injection to the dosing formulation concentrations. Cisplatin and 5-fluorouracil were provided as solutions prepared by diluting the product with 0.9% saline solution for injection to the target final concentration.
Dose level groups were administered either as single agents or in combination.
Comparison of the median tumor volume in the treatment groups (T) to the median tumor volume in the control group (T/C×100%) was used for evaluation of the antitumor efficacy.

[14] = 5-fluorouracil 12.5 mg/kg iv days 0,7
[15] = 5-fluorouracil 37.5 mg/kg iv days 0,7
[16] = 5-fluorouracil 50.0 mg/kg iv days 0,7

Compound CC(C)C[C@H](NC(=O)[C@H](Cc1ccccc1)NC(=O)c1cnccn1)B(O)O [Bortezomib, bortezomib] has an IC50 ([1]; Homo sapiens, A549, 72 h) of 0.0031 µM, an IC50 ([2]; Homo sapiens, PC-3, 72 h) of 0.8 µM and an IC50 ([3]; Homo sapiens, PANC-1, 72 h) of 0.416 µM. The IC50 ([4]; Homo sapiens, HGC-27, 72 h) was 0.0056 µM, the IC50 ([5]; HepG2, 72 h) was 0.39 µM and the IC50 ([6]; Homo sapiens, HT-29, 72 h) was 0.00615 µM. It also gave an IC50 [7] of 0.4 µM.
C#Cc1cccc(Nc2ncnc3cc(OCCOC)c(OCCOC)cc23)c1 [Erlotinib, erlotinib] was tested, and the IC50 ([1]; Homo sapiens, A549, 72 h) was 10 µM, the IC50 ([8]; Homo sapiens, A673, 72 h) was 50 µM and the IC50 ([2]; Homo sapiens, PC-3, 72 h) was 233 µM. For the same compound, the IC50 ([3]; Homo sapiens, PANC-1, 72 h) was 0.416 µM, the IC50 ([4]; Homo sapiens, HGC-27, 72 h) was 7.5 µM and the IC50 ([9]; Homo sapiens, IGROV-1, 72 h) was 7.91 µM. The IC50 ([5]; HepG2, 72 hours drug exposure, MTT, read-out: IC50) was 8.6 µM, the IC50 ([10]; Homo sapiens, MDA-MB-231, 72 h) was 100 µM and the IC50 ([11]; Homo sapiens, RXF 393, 72 h) was 4.8 µM. It also gave an IC50 ([6]; Homo sapiens, HT-29, 72 h) of 25.6 µM and an IC50 [7] of 149 µM.
Cc1c2oc3c(C)ccc(C(=O)N[C@@H]4C(=O)N[C@H](C(C)C)C(=O)N5CCC[C@H]5C(=O)N(C)CC(=O)N(C)[C@@H](C(C)C)C(=O)O[C@@H]4C)c3nc-2c(C(=O)N[C@@H]2C(=O)N[C@H](C(C)C)C(=O)N3CCC[C@H]3C(=O)N(C)CC(=O)N(C)[C@@H](C(C)C)C(=O)O[C@@H]2C)c(N)c1=O [Actinomycin D, actinomycin D] (I: T[dV]P[Sar][NMeV] / II: T[dV]P[Sar][NMeV]; ester I:1-I:C, II:1-II:C; linker I:N-II:N via Actinocin(9to1)) gave an IC50 ([1]; A549, 72 hours drug exposure, MTT, read-out: IC50) of 0.0047 µM, an IC50 ([8]; A673, 72 hours drug exposure, MTT) of 0.000956 µM and an IC50 ([2]; PC-3, 72 hours drug exposure, MTT) of 0.01 µM. It also gave an IC50 ([3]; PANC-1, 72 hours drug exposure, MTT) of 0.022 µM, an IC50 ([4]; HGC-27, 72 hours drug exposure, MTT) of 0.00374 µM and an IC50 ([9]; IGROV-1, 72 hours drug exposure, MTT) of 0.00329 µM. The IC50 ([10]; MDA-MB-231, 72 hours drug exposure, MTT) was 0.000454 µM, the IC50 ([11]; RXF-393, 72 hours drug exposure, MTT) was 0.000709 µM and the IC50 ([6]; HT-29, 72 hours drug exposure, MTT) was 0.00327 µM.
For O=c1[nH]cc(F)c(=O)[nH]1 [5-FU, 5-fluorouracil], the IC50 ([1]; Homo sapiens, A549, 72 h) was 92.3 µM, the IC50 [12] was 700 µM and the IC50 ([2]; Homo sapiens, PC-3, 72 h) was 1000 µM. It also gave an IC50 ([4]; Homo sapiens, HGC-27, 72 h) of 10 µM, an IC50 ([9]; Homo sapiens, IGROV-1, 72 h) of 90 µM and an IC50 ([5]; HepG2, 72 h) of 4.5 µM. For the same compound, the IC50 ([10]; Homo sapiens, MDA-MB-231, 72 h) was 90 µM, the IC50 ([11]; Homo sapiens, RXF 393, 72 h) was 300 µM and the IC50 ([6]; Homo sapiens, HT-29, 72 h) was 9 µM. The IC50 [7] was 1000 µM, the “% T/C on day 0” value [13, 14] was 100.7% and the “% T/C on day 2” value [13, 14] was 81.7%. The “% T/C on day 5” value [13, 14] was 101.3%, the “% T/C on day 7” value [13, 14] was 102.8% and the “% T/C on day 9” value [13, 14] was 98.6%. The “% T/C on day 12” value [13, 14] was 90.5%, the “% T/C on day 14” value [13, 14] was 83.8% and the “% T/C on day 0” value [13, 15] was 99.4%. The “% T/C on day 2” value [13, 15] was 86.9%, the “% T/C on day 5” value [13, 15] was 86.9% and the “% T/C on day 7” value [13, 15] was 78.6%. For the same compound, the “% T/C on day 9” value [13, 15] was 73.2%, the “% T/C on day 12” value [13, 15] was 76.7% and the “% T/C on day 14” value [13, 15] was 83.1%. For the same compound, the “% T/C on day 0” value [13, 16] was 100.3%, the “% T/C on day 2” value [13, 16] was 81.2% and the “% T/C on day 5” value [13, 16] was 82.3%. The “% T/C on day 7” value [13, 16] was 81.1%, the “% T/C on day 9” value [13, 16] was 75.6% and the “% T/C on day 12” value [13, 16] was 69.6%. For the same compound, the “% T/C on day 14” value [13, 16] was 60.7%.
